Laboratory results: article PMC11084659, “The Development of CDC25A-Derived Phosphoseryl Peptides That Bind 14-3-3ε with High Affinities” (International Journal of Molecular Sciences, 2024)
Blank lines part the entries; values can stand above or below the molecule they belong to. Where a SMILES comes first, the peptide text is derived from it. [ ]: non-standard residue; d: D form. pS = N[C@@H](COP(=O)(O)O)C(=O)O

How the values were obtained:
[1] = biological target: T1, 14-3-3ε (Homo sapiens, UniProt P62258); assay: Differential scanning fluorimetry (DSF), melting temperature shift of 14-3-3ε; assay type: binding; conditions: 30 μM peptide, 2 µM 14-3-3ε, SYPRO-orange, 20 mM TRIS, 150 mM NaCl, 1 mM DTT, pH 7.4, average ± SD of n ≥ 5
T1 construct: purchased Novus Biologicals
T1 sequence (P62258 1-255): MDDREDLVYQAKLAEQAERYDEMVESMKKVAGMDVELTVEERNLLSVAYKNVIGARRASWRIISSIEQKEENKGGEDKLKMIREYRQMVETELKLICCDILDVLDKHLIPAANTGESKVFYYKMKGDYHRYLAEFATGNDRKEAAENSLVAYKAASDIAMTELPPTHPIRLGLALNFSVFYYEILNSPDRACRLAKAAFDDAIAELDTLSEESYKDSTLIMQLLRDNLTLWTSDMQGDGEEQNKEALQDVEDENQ
Protocol: (§1) The binding of the peptides to 14-3-3ε was further assessed using differential scanning fluorometry (DSF) and surface plasmon resonance (SPR) measurements. DSF was used to determine the effects of the peptides on the melting temperature (Tm) of 14-3-3ε (Table 4, Figure 6 and Figure S4). The pS peptide caused an increase in melting temperature (ΔTm) of 0.35 ± 0.16 °C, while pS(174–182) induced no ΔTm. The Phe and Tyr substitutions in position 176 led to ΔTm of 1.08 ± 0.34 °C and 1.10 ± 0.32 °C, respectively. Lys, Phe, and Tyr substitutions in position 179 led to ΔTm of between 0.00 and 0.23 °C (Table 4). To quantitatively determine the affinity of the peptides for 14-3-3ε protein using SPR, His-tagged protein was immobilized on a nitrilotriacetic acid (Ni-NTA) sensor chip, and then binding of the peptides analogs to the protein was determined.
Thermal unfolding of 14-3-3ε (2 µM) and its complex with peptides (30 μM) was monitored in the presence of a hydrophobic protein-binding dye, SYPRO-orange (Invitrogen, Carlsbad, CA, USA), using the BioRad CFX384 Touchreal-time PCR (Hercules, CA, USA). The assays were performed in 20 mM TRIS, 150 mM NaCl, 1 mM DTT, and pH 7.4 buffer. The first derivative of the melting curves was plotted using GraphPad Prism software, version 10.0.3 to determine Tm of the protein. ΔTm was determined as the difference between Tm of 14-3-3ε in the presence of a peptide and Tm of 14-3-3ε alone.

[2] = biological target: T1, 14-3-3ε; assay: Surface plasmon resonance (SPR), steady-state affinity on immobilized His6-14-3-3ε; assay type: binding
Protocol: as §1
The SPR analyses were carried out using the Biacore 8K surface plasmon resonance instrument (Cytiva, Marlborough, MA, USA). A total of 100 nM His6-14-3-3ε was immobilized on the NiCl2-activated NTA chip (Cytiva, Marlborough, MA, USA) as previously described. Then, different concentrations of peptide in the range of 0−500 μM (depending on the peptide) were injected. The experiments were performed in 20 mM TRIS, 150 mM NaCl, 50 μM EDTA, 0.005% Tween 20, and pH 7.4 buffer. The affinities of the peptides binding to 14-3-3ε were determined by fitting the data to a steady-state binding model using Biacore Insight Evaluation Software (version 5.0.18.22102).

[3] = tested on: cSCC cells; conditions: read-out: IC50, death of cSCC cells; cited from earlier work
[4] = biological target: T2, (His)6-14-3-3ε (UniProt P62258 1-255); assay: SPR; Biacore 8K; 100 nM His6-14-3-3ε immobilized on NiCl2-activated NTA chip; peptides injected at 0-500 μM (depending on the peptide); 20 mM TRIS, 150 mM NaCl, 50 μM EDTA, 0.005% Tween 20, pH 7.4; steady-state binding model; conditions: both partners purified
T2 construct: 14-3-3 protein epsilon; also called His-tagged protein; source: bought: Novus Biologicals
T2 sequence (looked up): T1 sequence (P62258 1-255)

[5] = biological target: T2, (His)6-14-3-3ε; assay: differential scanning fluorimetry; 14-3-3ε 2 µM with peptide 30 μM, SYPRO-orange; 20 mM TRIS, 150 mM NaCl, 1 mM DTT, pH 7.4; ΔTm = Tm with peptide minus Tm of 14-3-3ε alone; conditions: both partners purified
[6] = biological target: T2, (His)6-14-3-3ε; assay: SPR; Biacore 8K; 100 nM His6-14-3-3ε immobilized on NiCl2-activated NTA chip; peptides injected at 0-500 μM (depending on the peptide); 20 mM TRIS, 150 mM NaCl, 50 μM EDTA, 0.005% Tween 20, pH 7.4; steady-state binding model; conditions: both partners purified; remark: listed apart in the source

ΔTm (melting temperature shift of 14-3-3ε) [1]: 1.08 ± 0.34 °C
Molecule: CC(=O)N[C@@H](CCC(N)=O)C(=O)N[C@@H](CCCNC(=N)N)C(=O)N[C@@H](Cc1ccccc1)C(=O)N[C@@H](CC(N)=O)C(=O)N[C@@H](COP(=O)(O)O)C(=O)N[C@@H](C)C(=O)N1CCC[C@H]1C(=O)N[C@@H](C)C(=O)N[C@@H](CCCNC(=N)N)C(N)=O [[Phe^176]pS(174–182)] (Ac-QRFN[pS]APAR-NH2)

ΔG ± SD (free energy of binding derived from KD) [2]: -9.073 ± 0.022 kcal/mol
ΔTm (melting temperature shift of 14-3-3ε) [1]: 0.35 ± 0.16 °C
Molecule: CSCC[C@H](NC(=O)[C@H](CCCNC(=N)N)NC(=O)[C@H](C)NC(=O)[C@@H]1CCCN1C(=O)[C@H](C)NC(=O)[C@H](COP(=O)(O)O)NC(=O)[C@H](CC(N)=O)NC(=O)[C@H](CCC(N)=O)NC(=O)[C@H](CCCNC(=N)N)NC(=O)[C@H](CCC(N)=O)NC(=O)[C@@H](NC(C)=O)[C@@H](C)O)C(=O)N[C@@H](CC(C)C)C(=O)N[C@@H](CO)C(=O)N[C@@H](CO)C(N)=O [pS] (Ac-TQRQN[pS]APARMLSS-NH2)
IC50 [3]: 29 µM

ΔG ± SD (free energy of binding derived from KD) [2]: -7.199 ± 0.055 kcal/mol
ΔTm (melting temperature shift of 14-3-3ε) [1]: 0.23 ± 0.09 °C
Molecule: CC(=O)N[C@@H](CCC(N)=O)C(=O)N[C@@H](CCCNC(=N)N)C(=O)N[C@@H](CCC(N)=O)C(=O)N[C@@H](CCCCN)C(=O)N[C@@H](COP(=O)(O)O)C(=O)N[C@@H](C)C(=O)N1CCC[C@H]1C(=O)N[C@@H](C)C(=O)N[C@@H](CCCNC(=N)N)C(N)=O [[Lys^177]pS(174–182)] (Ac-QRQK[pS]APAR-NH2)

ΔG ± SD (free energy of binding derived from KD) [2]: -6.874 ± 0.055 kcal/mol
Molecule: CC(=O)N[C@@H](CCC(N)=O)C(=O)N[C@@H](CCCNC(=N)N)C(=O)N[C@@H](CCC(N)=O)C(=O)N[C@@H](CC(N)=O)C(=O)N[C@@H](COP(=O)(O)O)C(=O)N[C@@H](C)C(=O)N1CCC[C@H]1C(=O)N[C@@H](C)C(=O)N[C@@H](CCCNC(=N)N)C(N)=O [pS(174–182)] (Ac-QRQN[pS]APAR-NH2)

ΔG ± SD (free energy of binding derived from KD) [2]: -5.37 ± 0.0932 kcal/mol
ΔTm (melting temperature shift of 14-3-3ε) [1]: 0 °C
Molecule: CC(=O)N[C@@H](CCC(N)=O)C(=O)N[C@@H](CCCNC(=N)N)C(=O)N[C@@H](CCC(N)=O)C(=O)N[C@@H](CC(N)=O)C(=O)N[C@@H](COP(=O)(O)O)C(=O)N[C@@H](Cc1ccc(O)cc1)C(=O)N1CCC[C@H]1C(=O)N[C@@H](C)C(=O)N[C@@H](CCCNC(=N)N)C(N)=O [[Tyr^179]pS(174–182)] (Ac-QRQN[pS]YPAR-NH2)

ΔG ± SD (free energy of binding derived from KD) [2]: -8.786 ± 0.11 kcal/mol
ΔTm (melting temperature shift of 14-3-3ε) [1]: 1.10 ± 0.32 °C
Molecule: CC(=O)N[C@@H](CCC(N)=O)C(=O)N[C@@H](CCCNC(=N)N)C(=O)N[C@@H](Cc1ccc(O)cc1)C(=O)N[C@@H](CC(N)=O)C(=O)N[C@@H](COP(=O)(O)O)C(=O)N[C@@H](C)C(=O)N1CCC[C@H]1C(=O)N[C@@H](C)C(=O)N[C@@H](CCCNC(=N)N)C(N)=O [[Tyr^176]pS(174–182)] (Ac-QRYN[pS]APAR-NH2)

ΔG ± SD (free energy of binding derived from KD) [2]: -5.772 ± 0.048 kcal/mol
ΔTm (melting temperature shift of 14-3-3ε) [1]: 0 °C
Molecule: CC(=O)N[C@@H](CCC(N)=O)C(=O)N[C@@H](CCCNC(=N)N)C(=O)N[C@@H](CCC(N)=O)C(=O)N[C@@H](CC(N)=O)C(=O)N[C@@H](COP(=O)(O)O)C(=O)N[C@@H](Cc1ccccc1)C(=O)N1CCC[C@H]1C(=O)N[C@@H](C)C(=O)N[C@@H](CCCNC(=N)N)C(N)=O [[Phe^179]pS(174–182)] (Ac-QRQN[pS]FPAR-NH2)

Kd [4]: 0.22 µM
B1: pS peptide, CDC25A residues 173–186 (peptide)
peptide: Ac-TQRQN[pS]APARMLSS-NH2
SMILES: CSCC[C@H](NC(=O)[C@H](CCCNC(=N)N)NC(=O)[C@H](C)NC(=O)[C@@H]1CCCN1C(=O)[C@H](C)NC(=O)[C@H](COP(=O)(O)O)NC(=O)[C@H](CC(N)=O)NC(=O)[C@H](CCC(N)=O)NC(=O)[C@H](CCCNC(=N)N)NC(=O)[C@H](CCC(N)=O)NC(=O)[C@@H](NC(C)=O)[C@@H](C)O)C(=O)N[C@@H](CC(C)C)C(=O)N[C@@H](CO)C(=O)N[C@@H](CO)C(N)=O
notes: CDC25A residues 173-186, with phosphoserine at 178; also called parent pS peptide; source: synthetic peptide (Biosynth International Inc.), >95% purity
ΔTm [5]: 0.35 °C

Kd [4]: 9.05 µM
Kd [6]: 6.56 ± 2.16 µM
B2: pS(174–182) (peptide)
peptide: Ac-QRQN[pS]APAR-NH2
SMILES: CC(=O)N[C@@H](CCC(N)=O)C(=O)N[C@@H](CCCNC(=N)N)C(=O)N[C@@H](CCC(N)=O)C(=O)N[C@@H](CC(N)=O)C(=O)N[C@@H](COP(=O)(O)O)C(=O)N[C@@H](C)C(=O)N1CCC[C@H]1C(=O)N[C@@H](C)C(=O)N[C@@H](CCCNC(=N)N)C(N)=O
notes: CDC25A residues 174-182, with phosphoserine at 178; also called Ac-CDC25A(174–182)-NH2; source: synthetic peptide (Biosynth International Inc.), >95% purity

Kd [4]: 116 µM
B3: [Tyr^179]pS(174–182) (peptide)
peptide: Ac-QRQN[pS]YPAR-NH2
SMILES: CC(=O)N[C@@H](CCC(N)=O)C(=O)N[C@@H](CCCNC(=N)N)C(=O)N[C@@H](CCC(N)=O)C(=O)N[C@@H](CC(N)=O)C(=O)N[C@@H](COP(=O)(O)O)C(=O)N[C@@H](Cc1ccc(O)cc1)C(=O)N1CCC[C@H]1C(=O)N[C@@H](C)C(=O)N[C@@H](CCCNC(=N)N)C(N)=O
notes: CDC25A residues 174-182, with phosphoserine at 178 and Ala179 replaced by Tyr; source: synthetic peptide (Biosynth International Inc.), >95% purity

Kd [4]: 5.23 µM
B4: [Lys^177]pS(174–182) (peptide)
peptide: Ac-QRQK[pS]APAR-NH2
SMILES: CC(=O)N[C@@H](CCC(N)=O)C(=O)N[C@@H](CCCNC(=N)N)C(=O)N[C@@H](CCC(N)=O)C(=O)N[C@@H](CCCCN)C(=O)N[C@@H](COP(=O)(O)O)C(=O)N[C@@H](C)C(=O)N1CCC[C@H]1C(=O)N[C@@H](C)C(=O)N[C@@H](CCCNC(=N)N)C(N)=O
notes: CDC25A residues 174-182, with phosphoserine at 178 and Asn177 replaced by Lys; source: synthetic peptide (Biosynth International Inc.), >95% purity

Kd [4]: 0.41 µM
B5: [Tyr^176]pS(174–182) (peptide)
peptide: Ac-QRYN[pS]APAR-NH2
SMILES: CC(=O)N[C@@H](CCC(N)=O)C(=O)N[C@@H](CCCNC(=N)N)C(=O)N[C@@H](Cc1ccc(O)cc1)C(=O)N[C@@H](CC(N)=O)C(=O)N[C@@H](COP(=O)(O)O)C(=O)N[C@@H](C)C(=O)N1CCC[C@H]1C(=O)N[C@@H](C)C(=O)N[C@@H](CCCNC(=N)N)C(N)=O
notes: CDC25A residues 174-182, with phosphoserine at 178 and Gln176 replaced by Tyr; source: synthetic peptide (Biosynth International Inc.), >95% purity
ΔTm [5]: 1.1 °C

Kd [4]: 58.3 µM
B6: [Phe^179]pS(174–182) (peptide)
peptide: Ac-QRQN[pS]FPAR-NH2
SMILES: CC(=O)N[C@@H](CCC(N)=O)C(=O)N[C@@H](CCCNC(=N)N)C(=O)N[C@@H](CCC(N)=O)C(=O)N[C@@H](CC(N)=O)C(=O)N[C@@H](COP(=O)(O)O)C(=O)N[C@@H](Cc1ccccc1)C(=O)N1CCC[C@H]1C(=O)N[C@@H](C)C(=O)N[C@@H](CCCNC(=N)N)C(N)=O
notes: CDC25A residues 174-182, with phosphoserine at 178 and Ala179 replaced by Phe; source: synthetic peptide (Biosynth International Inc.), >95% purity

Kd [4]: 0.36 µM
B7: [Phe^176]pS(174–182) (peptide)
peptide: Ac-QRFN[pS]APAR-NH2
SMILES: CC(=O)N[C@@H](CCC(N)=O)C(=O)N[C@@H](CCCNC(=N)N)C(=O)N[C@@H](Cc1ccccc1)C(=O)N[C@@H](CC(N)=O)C(=O)N[C@@H](COP(=O)(O)O)C(=O)N[C@@H](C)C(=O)N1CCC[C@H]1C(=O)N[C@@H](C)C(=O)N[C@@H](CCCNC(=N)N)C(N)=O
notes: CDC25A residues 174-182, with phosphoserine at 178 and Gln176 replaced by Phe; source: synthetic peptide (Biosynth International Inc.), >95% purity
ΔTm [5]: 1.08 °C
